Our source for the Activity and IC50 values is ChEMBL document CHEMBL1139210, “9,19-cyclolanostane derivatives from the roots of Actaea pachypoda” (J Nat Prod, 2007).

By IC50 is commonly meant the point on the concentration scale where inhibition reaches its midpoint. Low readings indicate greater potency in that assay, high ones weaker potency in that assay.

One data set has as its system SK-OV-3. The experiment in a line: Cytotoxicity against SKOV3 cells upto 25 ug/mL by neutral red assay. It counts as cell-based. To be noted: human.
Data set [1] deals with T1, Estrogen receptor (Homo sapiens) (UniProt P03372).
T1 sequence (whole entry): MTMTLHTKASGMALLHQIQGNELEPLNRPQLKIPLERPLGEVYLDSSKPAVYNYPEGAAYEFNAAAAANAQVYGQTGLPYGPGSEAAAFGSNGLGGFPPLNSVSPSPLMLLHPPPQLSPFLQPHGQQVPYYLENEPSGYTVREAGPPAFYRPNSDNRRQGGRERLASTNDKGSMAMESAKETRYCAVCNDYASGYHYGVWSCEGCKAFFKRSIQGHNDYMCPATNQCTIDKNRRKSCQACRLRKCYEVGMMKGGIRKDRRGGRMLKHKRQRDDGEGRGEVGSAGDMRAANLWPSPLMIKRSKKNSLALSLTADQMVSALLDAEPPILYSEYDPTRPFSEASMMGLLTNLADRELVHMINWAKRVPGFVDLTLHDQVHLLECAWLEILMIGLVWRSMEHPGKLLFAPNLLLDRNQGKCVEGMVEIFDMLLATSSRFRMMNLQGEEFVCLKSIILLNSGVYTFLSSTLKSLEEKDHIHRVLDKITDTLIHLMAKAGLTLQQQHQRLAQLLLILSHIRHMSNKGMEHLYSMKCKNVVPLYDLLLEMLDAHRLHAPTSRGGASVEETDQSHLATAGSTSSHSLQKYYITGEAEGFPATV
The experiment in a line: Activity against human ERalpha expressed in recombinant yeast cells upto 500 ug/mL. The data set is classed as cell-based.

Data set [2] in a line: (§1) Inhibition of activation of human complement.
The subject of a further data set is LLC-PK1. The experiment in a line: Cytotoxicity against LLC-PK1 cells upto 25 ug/mL by neutral red assay. The data set is classed as cell-based, Sus scrofa. To be noted: pig.
The test system of a further data set is KB. Kind of data set: Cytotoxicity against KB cells upto 25 ug/mL by neutral red assay. The data set is classed as cell-based. To be noted: human.
The test system of a further data set is SK-MEL. The experiment in a line: Cytotoxicity against SK-MEL cells upto 25 ug/mL by neutral red assay. It counts as cell-based. Particulars: human.
The next data set relates to Vero. Kind of data set: Cytotoxicity against Vero cells upto 25 ug/mL by neutral red assay. It counts as cell-based. Particulars: chlorocebus sabaeus.
For another data set, the system named is HL-60. The experiment in a line: Antioxidant activity in HL60 cells by DCFH-DA method upto 20ug/mL. The data set is classed as functional, cell-based. To be noted: Homo sapiens.
A further data set concerns BT-549. Kind of data set: Cytotoxicity against BT549 cells upto 25 ug/mL by neutral red assay. The data set is classed as cell-based. Particulars: human.
Another data set is filed under the species Homo sapiens. The description is as §1.

Activity calls are given as the source filed them. The rule behind the calls is not given here.

Take `CC(=O)O[C@@H]1C[C@@]23C[C@@]24CC[C@H](O)C(C)(C)[C@@H]4CC[C@H]3[C@]2(C)[C@@H](O)[C@]34O[C@H](C[C@@H](C)[C@@H]3[C@@]12C)[C@@H](C(C)(C)O)O4`: the Activity entry with SK-OV-3, with LLC-PK1, in the data set on KB, in the data set with SK-MEL, in the data set on Vero and in the data set with BT-549 was “Not Active” each time. Moreover, the outcome (in data set [1]; in the data set with HL-60) was inactive. In [2], this compound gave a 50% inhibitory concentration (IC50) of 187 µM.
As for `CC(=O)O[C@@H]1C[C@@]23C[C@@]24CC[C@H](O[C@@H]2OC[C@@H](O)[C@H](O)[C@H]2O)C(C)(C)[C@@H]4CC[C@H]3[C@]2(C)[C@@H](O)[C@]34O[C@H](C[C@@H](C)[C@@H]3[C@@]12C)[C@@H](C(C)(C)O)O4`, the Activity result with SK-OV-3, with LLC-PK1, with KB, with SK-MEL, in the data set with Vero and in the data set on BT-549 was “Not Active” in each case. The outcome (in [1]; in the data set listed under Homo sapiens; in the data set on HL-60) was inactive.
With `CC(=O)O[C@@H]1C[C@@]23C[C@@]24CC[C@H](O[C@@H]2OC[C@@H](O)[C@H](O)[C@H]2O)C(C)(C)[C@@H]4CC[C@H]3[C@]2(C)C[C@@H]3O[C@@]4(C[C@@H](C)[C@@H]3[C@@]12C)OC[C@]1(C)O[C@H]41`, the Activity entry in the data set on SK-OV-3, in the data set on LLC-PK1, in the data set on KB, with SK-MEL, in the data set on Vero and in the data set on BT-549 was “Not Active” in each case. The result (in [1]; in the data set listed under Homo sapiens; with HL-60) was inactive.
For the compound `C[C@H]1[C@H]2[C@H](C[C@@]3(C)C4=CC[C@H]5C(C)(C)[C@@H](O[C@@H]6OC[C@@H](O)[C@H](O)[C@H]6O)CC[C@@]56C[C@@]46CC[C@]23C)O[C@@]2(O[C@H]2C(C)(C)O)[C@@H]1O`, the Activity entry in the data set with SK-OV-3, in the data set with LLC-PK1, in the data set on KB, in the data set on SK-MEL, in the data set with Vero and in the data set with BT-549 was “Not Active” in each case. For the same compound, the outcome (in [1]; in the data set listed under Homo sapiens; in the data set on HL-60) was inactive.
Consider `C[C@H]1[C@H](C)CC[C@]2(C(=O)O)CC[C@]3(C)C(=CC[C@@H]4[C@@]5(C)CC[C@H](O)C(C)(C)[C@@H]5CC[C@]43C)[C@H]12` [URSOLIC ACID], for which the IC50 in data set [2] was found to be 55 µM.
Turning to `CC(=O)O[C@H](C[C@@H](C)[C@H]1C(=O)[C@H](O)[C@@]2(C)[C@@H]3CC[C@H]4C(C)(C)[C@@H](O[C@@H]5OC[C@@H](O)[C@H](O)[C@H]5O)CC[C@@]45C[C@@]35CC[C@]12C)[C@H]1OC1(C)C`, the Activity result in the data set with SK-OV-3, in the data set with LLC-PK1, in the data set on KB, in the data set on SK-MEL, in the data set with Vero and with BT-549 was “Not Active” in each case. For the same compound, the outcome (in data set [1]; in the data set listed under Homo sapiens; with HL-60) was inactive.
Consider `CC(=O)O[C@@H]1C[C@@]23C[C@@]24CC[C@H](O[C@@H]2OC[C@@H](O)[C@H](O)[C@H]2O)C(C)(C)[C@@H]4CC=C3[C@]2(C)C[C@@H]3O[C@@]4(O[C@H]4C(C)(C)O)[C@H](O)[C@@H](C)[C@@H]3[C@@]12C`, for which the Activity entry in the data set on SK-OV-3, in the data set with LLC-PK1, in the data set with KB, with SK-MEL, in the data set with Vero and with BT-549 was “Not Active” in each case. Moreover, the outcome (in data set [1]; in the data set listed under Homo sapiens; with HL-60) was inactive.
`C[C@@H]1C[C@H]2O[C@@]3(O[C@@H]2C(C)(C)O)[C@H](O)[C@@]2(C)[C@@H]4CC[C@H]5C(C)(C)[C@@H](O[C@@H]6OC[C@@H](O)[C@H](O)[C@H]6O)CC[C@@]56C[C@@]46CC[C@]2(C)[C@@H]13`: the Activity result in the data set with SK-OV-3, in the data set with LLC-PK1, in the data set with KB, with SK-MEL, in the data set with Vero and in the data set on BT-549 was “Not Active” throughout. Also, the outcome (in data set [1]; in the data set listed under Homo sapiens; in the data set with HL-60) was inactive.
In turn, `CC1(C)CC[C@]2(C(=O)O)CC[C@]3(C)C(=CC[C@@H]4[C@@]5(C)CC[C@H](O)C(C)(C)[C@@H]5CC[C@]43C)[C@@H]2C1` [OLEANOLIC_ACID] registered an IC50 in data set [2] of 78 µM.
Regarding `CC(=O)O[C@@H]1C[C@@]23C[C@@]24CC[C@H](O[C@@H]2OC[C@@H](O)[C@H](O)[C@H]2O)C(C)(C)[C@@H]4CCC3[C@]2(C)C[C@@H]3O[C@@]4(O[C@H]4C(C)(C)O)[C@H](O)[C@@H](C)[C@@H]3[C@@]12C` (some centres undefined), the Activity entry in the data set with SK-OV-3, in the data set with LLC-PK1, in the data set on KB, with SK-MEL, in the data set with Vero and with BT-549 was “Not Active” throughout. Moreover, the outcome (in [1]; in the data set listed under Homo sapiens; in the data set on HL-60) was inactive.
